In patent publication US20230416329A1, “A PEPTIDE WITH DISULFIDE BONDS AND INHIBITORY ACTIVITY AGAINST SERINE PROTEASES, DERIVED HYBRID PEPTIDES THEREOF, AND USES THEREOF” (INSTITUTE OF MATERIA MEDICA , CHINESE ACADEMY OF MEDICAL …, priority 2020, published 2023):

What was measured:
trypsin = molecular target: T1, trypsin (Bos taurus, UniProt P00760); test: in vitro
T1 sequence (P00760 24-246): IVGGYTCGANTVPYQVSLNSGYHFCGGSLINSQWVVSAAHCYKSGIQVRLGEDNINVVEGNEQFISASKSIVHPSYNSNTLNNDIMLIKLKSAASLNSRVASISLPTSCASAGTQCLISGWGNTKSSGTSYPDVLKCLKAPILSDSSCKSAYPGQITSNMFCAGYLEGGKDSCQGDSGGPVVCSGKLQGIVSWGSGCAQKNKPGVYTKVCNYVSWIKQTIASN
Procedure: FIG. 17. […] At different time point, 25 μL aliquots was taken out, and 10% (v/v) TFA was added to terminate the reaction.
(§1) Mix by centrifugation at 8000 rpm for 30 seconds.
(§2) Arrange a certain volume of 0.05 μg/μL trypsin solution in another sterile EP. Incubate the EP tubes containing peptides and enzymes at 37° C. for 5 min, and separately add 6 μL of trypsin solution to each EP tube containing peptides and mix well. Start timing and extract 25 μL of reaction solution at 1.5, 3.0, 4.5, 6.0 and 9.0 min later, respectively. Add 3.75 μL of 10% TFA to terminate the reaction and mix well by centrifugation at 8000 rpm for 30 seconds.
as §2, with “and” for “and separately”, “9” for “6”, “6.0, 9.0, 15.0, 30.0,” for “6.0”, “60.0” for “9.0”
Referring to the experimental method in Example 5, in vitro stability of salmon Calcitonin analogs with oral administration activity to the enzymatic hydrolysis by trypsin, chymotrypsin and elastase were performed.
Referring to the experimental method in Example 5, in vitro stability of IL-17A inhibitory peptides towards the enzymatic hydrolysis by trypsin, chymotrypsin and elastase were performed.

DPP-IV = DPP-IV (Homo sapiens, UniProt P27487); test: Tolerance of GLP-1 and its analogues to DPP-IV (RP-HPLC remaining peak area); type: in vitro ADME; settings: peptide 25 μM, DPP-IV 0.5 ng/μL, 37° C.; for Remaining peak area (%)/DPP-IV: 0.0 h; for remaining at 0.5 h, 25 μM / remaining at 2 h, 25 μM / remaining at 4 h, 25 μM / remaining at 8 h, 25 μM / remaining at 12 h, 25 μM: isolated DPP-IV enzyme in buffer, pH 8
Sequence of DPP-IV (P27487 whole entry, species assumed): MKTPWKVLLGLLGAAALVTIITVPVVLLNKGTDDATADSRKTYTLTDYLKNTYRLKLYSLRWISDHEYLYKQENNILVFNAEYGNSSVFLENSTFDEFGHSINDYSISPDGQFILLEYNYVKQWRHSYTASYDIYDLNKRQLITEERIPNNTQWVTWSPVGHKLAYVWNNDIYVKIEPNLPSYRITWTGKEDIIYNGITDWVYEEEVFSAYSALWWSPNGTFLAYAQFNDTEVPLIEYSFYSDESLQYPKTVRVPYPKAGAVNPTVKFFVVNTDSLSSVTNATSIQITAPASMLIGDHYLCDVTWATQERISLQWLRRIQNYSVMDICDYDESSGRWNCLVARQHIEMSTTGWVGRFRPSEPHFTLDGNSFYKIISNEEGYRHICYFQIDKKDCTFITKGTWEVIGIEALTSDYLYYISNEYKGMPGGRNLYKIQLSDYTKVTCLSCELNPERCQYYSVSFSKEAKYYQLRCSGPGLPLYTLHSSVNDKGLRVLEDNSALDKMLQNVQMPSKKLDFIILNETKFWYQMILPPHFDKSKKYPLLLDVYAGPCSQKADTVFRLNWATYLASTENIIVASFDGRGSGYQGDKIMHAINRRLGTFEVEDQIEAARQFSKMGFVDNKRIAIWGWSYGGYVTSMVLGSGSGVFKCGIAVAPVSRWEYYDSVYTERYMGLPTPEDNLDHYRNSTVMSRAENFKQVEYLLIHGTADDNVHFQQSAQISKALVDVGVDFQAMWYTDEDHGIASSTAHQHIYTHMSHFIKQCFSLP
Procedure: as §1
(2) Arrange a certain volume of 0.005 μg/μL DPP-IV solution in another sterile EP.

NEP24.11 = NEP24.11 (Homo sapiens, UniProt P08473); test: Tolerance of GLP-1 and its analogues to NEP24.11 (RP-HPLC remaining peak area); type: in vitro ADME; settings: peptide 30 μM, NEP24.11 1.0 ng/μL, 37° C.; for Remaining peak area (%)/NEP24.11: 0.0 h; for remaining at 0.5 h, 30 μM / remaining at 2 h, 30 μM / remaining at 4 h, 30 μM / remaining at 8 h, 30 μM: isolated NEP24.11 enzyme in buffer; for remaining at 0.5 h, 30 μM: pH 7.4, 0.5 h; for remaining at 2 h, 30 μM: pH 7.4, 2.0 h; for remaining at 4 h, 30 μM: pH 7.4, 4.0 h; for remaining at 8 h, 30 μM: pH 7.4, 8.0 h, read-out: Remaining peak area (%)/NEP24.11
Sequence of NEP24.11 (P08473 whole entry): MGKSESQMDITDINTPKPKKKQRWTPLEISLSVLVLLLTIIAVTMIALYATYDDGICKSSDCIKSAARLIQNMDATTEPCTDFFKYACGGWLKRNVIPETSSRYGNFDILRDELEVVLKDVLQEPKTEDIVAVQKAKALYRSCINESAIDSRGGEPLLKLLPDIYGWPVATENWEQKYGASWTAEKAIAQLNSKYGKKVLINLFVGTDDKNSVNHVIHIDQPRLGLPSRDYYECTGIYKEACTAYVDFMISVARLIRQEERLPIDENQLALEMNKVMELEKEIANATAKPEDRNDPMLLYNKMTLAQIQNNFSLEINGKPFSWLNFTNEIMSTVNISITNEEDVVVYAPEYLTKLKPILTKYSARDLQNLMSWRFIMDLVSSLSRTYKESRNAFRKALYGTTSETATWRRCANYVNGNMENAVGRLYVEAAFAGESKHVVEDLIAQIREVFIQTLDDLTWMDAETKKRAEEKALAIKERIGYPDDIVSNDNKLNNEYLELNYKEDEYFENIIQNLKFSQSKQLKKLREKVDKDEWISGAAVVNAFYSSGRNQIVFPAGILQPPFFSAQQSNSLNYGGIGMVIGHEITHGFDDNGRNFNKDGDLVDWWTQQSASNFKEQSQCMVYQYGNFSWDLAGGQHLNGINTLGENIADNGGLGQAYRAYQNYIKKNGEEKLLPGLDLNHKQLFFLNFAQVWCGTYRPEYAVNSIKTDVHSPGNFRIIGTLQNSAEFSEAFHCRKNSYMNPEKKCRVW
Procedure: as §1
Arrange a certain volume of 0.04 μg/μL NEP24.11 enzyme solution in another sterile EP.

chymotrypsin = chymotrypsin (Bos taurus, UniProt P00766); test: in vitro; settings: isolated enzyme chymotrypsin, pH 7.8, Remaining peak area (%)/chymotrypsin
Summary of the method: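 RP-HPLC peak area tracked intact peptide after 37 °C digestion with chymotrypsin (0.05 μg/μL solution, 5 min preincubation). Samples were withdrawn at 1.5-60.0 min and stopped with 10% TFA.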

[1] = Stability of GLP-1 and its analogues in human serum; settings: 25% (v/v) human serum
[2] = isolated enzyme trypsin, pH 7.8

| Structure (SMILES) | remaining at 0.025 h, 60 μM (trypsin; [2]) | remaining at 0.05 h, 60 μM (trypsin; [2]) | remaining at 0.075 h, 60 μM (trypsin; [2]) | remaining at 0.1 h, 60 μM (trypsin; [2]) | remaining at 0.15 h, 60 μM (trypsin; [2]) | Remaining peak area (%)/DPP-IV (DPP-IV) | remaining at 0.5 h, 25 μM (DPP-IV) | remaining at 2 h, 25 μM (DPP-IV) | remaining at 4 h, 25 μM (DPP-IV) | remaining at 8 h, 25 μM (DPP-IV) | remaining at 12 h, 25 μM (DPP-IV) | Remaining peak area (%)/NEP24.11 (NEP24.11) | remaining at 0.5 h, 30 μM (NEP24.11) | remaining at 2 h, 30 μM (NEP24.11) | remaining at 4 h, 30 μM (NEP24.11) | remaining at 0.025 h, 60 μM (chymotrypsin) | remaining at 0.05 h, 60 μM (chymotrypsin) | remaining at 0.075 h, 60 μM (chymotrypsin) | remaining at 0.1 h, 60 μM (chymotrypsin) | remaining at 0.15 h, 60 μM (chymotrypsin) | further results |
| --- | --- | --- | --- | --- | --- | --- | --- | --- | --- | --- | --- | --- | --- | --- | --- | --- | --- | --- | --- | --- | --- |
| CC[C@H](C)[C@H](NC(=O)[C@H](Cc1ccccc1)NC(=O)[C@H](CCC(=O)O)NC(=O)[C@H](CCCCN)NC(=O)[C@H](C)NC(=O)[C@H](C)NC(=O)[C@H](CCC(N)=O)NC(=O)CNC(=O)[C@H](CCC(=O)O)NC(=O)[C@H](CC(C)C)NC(=O)[C@H](Cc1ccc(O)cc1)NC(=O)[C@H](CO)NC(=O)[C@H](CO)NC(=O)[C@@H](NC(=O)[C@H](CC(=O)O)NC(=O)[C@H](CO)NC(=O)[C@@H](NC(=O)[C@H](Cc1ccccc1)NC(=O)[C@@H](NC(=O)CNC(=O)[C@H](CCC(=O)O)NC(=O)[C@H](C)NC(=O)[C@H](Cc1c[nH]cn1)NC(=O)CNC(=O)CNC(=O)[C@H](CCCNC(=N)N)NC(=O)[C@H](CO)NC(=O)[C@H](Cc1ccccc1)NC(=O)[C@H](CCCNC(=N)N)NC(=O)[C@H](CCC(N)=O)NC(=O)CNC(=O)CNC(=O)[C@@H]1CCCN1C(=O)[C@H](Cc1ccccc1)NC(=O)[C@@H]1CSSC[C@H](NC(=O)[C@H](CCCNC(=N)N)NC(=O)CN)C(=O)N[C@@H]([C@@H](C)O)C(=O)N[C@@H](CCCCN)C(=O)N[C@@H](CO)C(=O)N[C@@H]([C@@H](C)CC)C(=O)N2CCC[C@H]2C(=O)N2CCC[C@H]2C(=O)N[C@@H]([C@@H](C)CC)C(=O)N1)[C@@H](C)O)[C@@H](C)O)C(C)C)C(=O)N[C@@H](C)C(=O)N[C@@H](Cc1c[nH]c2ccccc12)C(=O)N[C@@H](CC(C)C)C(=O)N[C@H](C(=O)N[C@@H](CCCCN)C(=O)NCC(=O)N[C@@H](CCCNC(=N)N)C(=O)NCC(=O)NCC(=O)N[C@@H](CCCCN)C(=O)O)C(C)C [BT1-N-GLP-1] | 90.9 ± 3.6% | 96.4 ± 4.9% | 91.4 ± 3.2% | 93.2 ± 7% | 88.8 ± 4% | 100.0 ± 0.0% | 88.9 ± 0.8% | 87 ± 2.7% | 85.8 ± 1.8% | 87.3 ± 2% | 84.8 ± 1.6% | 100.0 ± 0.0% | 90.8 ± 7.1% | 78.8 ± 8% | 77.8 ± 4.3% | 69 ± 4.4% | 58.1 ± 4.9% | 53.2% | 23.1 ± 0.9% | 23.5 ± 0.2% | remaining at 0.25 h, 60 μM (trypsin; [2]): 90 ± 4.4%; remaining at 0.5 h, 60 μM (trypsin; [2]): 91 ± 6.6%; remaining at 1 h, 60 μM (trypsin; [2]): 88.9 ± 3%; remaining at 8 h, 30 μM (NEP24.11): 71.7 ± 4.9% |
| CC[C@H](C)[C@H](NC(=O)[C@H](Cc1ccccc1)NC(=O)[C@H](CCC(=O)O)NC(=O)[C@H](CCCCN)NC(=O)[C@H](C)NC(=O)[C@H](C)NC(=O)[C@H](CCC(N)=O)NC(=O)CNC(=O)[C@H](CCC(=O)O)NC(=O)[C@H](CC(C)C)NC(=O)[C@H](Cc1ccc(O)cc1)NC(=O)[C@H](CO)NC(=O)[C@H](CO)NC(=O)[C@@H](NC(=O)[C@H](CC(=O)O)NC(=O)[C@H](CO)NC(=O)[C@@H](NC(=O)[C@H](Cc1ccccc1)NC(=O)[C@@H](NC(=O)CNC(=O)[C@H](CCC(=O)O)NC(=O)[C@H](C)NC(=O)[C@H](Cc1c[nH]cn1)NC(=O)CNC(=O)CNC(=O)[C@@H](NC(=O)[C@@H]1CCCN1C(=O)[C@@H](NC(=O)CNC(=O)CNC(=O)[C@H](CCCNC(=N)N)NC(=O)[C@H](CO)NC(=O)[C@H](Cc1ccccc1)NC(=O)[C@H](CCCNC(=N)N)NC(=O)[C@H](CCC(N)=O)NC(=O)CNC(=O)CNC(=O)[C@@H]1CSSC[C@H](N)C(=O)N2CCC[C@H]2C(=O)N[C@@H](CCCCN)C(=O)N[C@@H]([C@@H](C)CC)C(=O)N[C@@H](CC(C)C)C(=O)N[C@@H](CCC(N)=O)C(=O)N[C@@H](CCCNC(=N)N)C(=O)N1)[C@@H](C)CC)[C@@H](C)CC)[C@@H](C)O)[C@@H](C)O)C(C)C)C(=O)N[C@@H](C)C(=O)N[C@@H](Cc1c[nH]c2ccccc12)C(=O)N[C@@H](CC(C)C)C(=O)N[C@H](C(=O)N[C@@H](CCCCN)C(=O)NCC(=O)N[C@@H](CCCNC(=N)N)C(=O)NCC(=O)NCC(=O)N[C@@H](CCCCN)C(=O)O)C(C)C [DNT-GLP-1] | 68.3 ± 5.9% | 44.9 ± 3.5% | 21.2 ± 1.1% | 0% | 0% | 100.0 ± 0.0% | 108 ± 9.3% | 108 ± 1.7% | 105 ± 2.3% | 105 ± 1.7% | 97.4 ± 2.1% | 100.0 ± 0.0% | 82.2 ± 1.3% | 79.1 ± 1.7% | 77.9 ± 4.2% | 97 ± 5.7% | 89.8 ± 0.9% | 85.1 ± 4.4% | 84.3 ± 2% | 78.2 ± 2.1% | stability towards trypsin hydrolysis (in words) (trypsin): completely degraded; remaining at 8 h, 30 μM (NEP24.11): 67.8 ± 4.7% |
| CC[C@H](C)[C@H](NC(=O)[C@H](Cc1ccccc1)NC(=O)[C@H](CCC(=O)O)NC(=O)[C@H](CCCCN)NC(=O)[C@H](C)NC(=O)[C@H](C)NC(=O)[C@H](CCC(N)=O)NC(=O)CNC(=O)[C@H](CCC(=O)O)NC(=O)[C@H](CC(C)C)NC(=O)[C@H](Cc1ccc(O)cc1)NC(=O)[C@H](CO)NC(=O)[C@H](CO)NC(=O)[C@@H](NC(=O)[C@H](CC(=O)O)NC(=O)[C@H](CO)NC(=O)[C@@H](NC(=O)[C@H](Cc1ccccc1)NC(=O)[C@@H](NC(=O)CNC(=O)[C@H](CCC(=O)O)NC(=O)[C@H](C)NC(=O)[C@H](Cc1c[nH]cn1)NC(=O)CNC(=O)CNC(=O)[C@@H](NC(=O)[C@@H]1CCCN1C(=O)[C@@H](NC(=O)CNC(=O)CNC(=O)[C@H](Cc1ccc(O)cc1)NC(=O)[C@@H]1CSSC[C@H](NC(=O)[C@@H](N)Cc2ccccc2)C(=O)N[C@@H]([C@@H](C)O)C(=O)N[C@@H](Cc2ccc(O)cc2)C(=O)N[C@@H](CO)C(=O)N[C@@H]([C@@H](C)CC)C(=O)N2CCC[C@H]2C(=O)N2CCC[C@H]2C(=O)N[C@@H](CCC(N)=O)C(=O)N1)[C@@H](C)CC)[C@@H](C)CC)[C@@H](C)O)[C@@H](C)O)C(C)C)C(=O)N[C@@H](C)C(=O)N[C@@H](Cc1c[nH]c2ccccc12)C(=O)N[C@@H](CC(C)C)C(=O)N[C@H](C(=O)N[C@@H](CCCCN)C(=O)NCC(=O)N[C@@H](CCCNC(=N)N)C(=O)NCC(=O)NCC(=O)N[C@@H](CCCCN)C(=O)O)C(C)C [CH10-D-GLP-1] |  |  |  |  |  | 100.0 ± 0.0% | 91.2 ± 3.2% | 94.1 ± 2.3% | 86.8 ± 0.8% | 84.1 ± 6.7% | 81.8 ± 0.6% |  |  |  |  | 59.7 ± 2.1% | 59.1 ± 4.5% | 54.5 ± 1.2% | 57.3 ± 1.5% | 56.3 ± 4.7% | Remaining peak area (%)/human serum ([1]; 0.0 h, peptide 0.03 mM, 37° C.): 100.0 ± 0.0%; remaining at 0.5 h, 0.03 mM ([1]; human, pH 7): 74.4 ± 5.5%; remaining at 2 h, 0.03 mM ([1]; human, pH 7): 54.8 ± 2.1%; remaining at 4 h, 0.03 mM ([1]; human, pH 7): 26.2 ± 2.9%; remaining at 8 h, 0.03 mM ([1]; human, pH 7): 7.3 ± 1%; remaining at 12 h, 0.03 mM ([1]; human, pH 7): 0.8%; remaining at 0.25 h, 60 μM (chymotrypsin): 54 ± 4.7%; remaining at 0.5 h, 60 μM (chymotrypsin): 57.4 ± 4%; remaining at 1 h, 60 μM (chymotrypsin): 59.4 ± 2.1% |
